In US11298362B2, “Combination therapy with Notch and CDK4/6 inhibitors for the treatment of cancer” (Eli Lilly and Company, priority 2016, dated 2022):

What was measured:
[1] = test system: pRB (phospho-ser780-Rb), total RB, Topo IIa and pHH3 in H2122 cells; experiment: Cell cycle biomarker expression by immunoblotting in H2122 cells; format: cell-based, human
Protocol: Time Course Study: NCI-H441 and NCI-H2122 NSCLC cell lines are treated for 4 or 24 hours with 1 μM of Compound A and harvested to evaluate effects on cell cycle biomarker expression which includes the cell cycle inhibitors p21 and p27 as well as markers for cell cycle progression including phospho-histone H3 (pHH3) (a marker for M-phase), Topo 2A (a marker for S-phase), phospho_ser780-RB (a marker for G1 and, as well as, for CDK4/6 inhibition) and cyclin Dl. […] […] Cells are harvested after 24 hours of treatment and evaluated for expression of various cell cycle biomarkers by immunoblotting. […] RB is the direct kinase target of CDK4/6 so inhibition of pRB provides a direct measure of CDK4/6 inhibition. The inhibition of Topo IIA and pHH3 are indicative of the inhibition of cell cycle progression through S and M phases of the cell cycle, respectively. […] The same study is carried out in the H441 cell line. […] RB is the direct kinase target of CDK4/6 so inhibition of pRB provides a direct measure of CDK4/6 inhibition. The inhibition of Topo IIA and pHH3 are indicative of the inhibition of cell cycle progression through S and M phases of the cell cycle, respectively.

[2] = test system: NCI-H2122 xenograft; experiment: Human NCI-H2122 xenograft tumor growth in athymic nude mice; format: in vivo
Protocol: (§1) NCI-H2122 is a human adenocarcinoma non-small cell lung cancer cell line (ATCC® as CRL-5985). The cells are grown in culture media at 37° C. in 5% CO2 with humidity in the atmosphere. Cell culture media for NCI-H2122 is RPMI-1640 with 2 mM L-glutamine, 10 mM 2-[4-(2-hydroxyethyl)piperazin-1-yl]ethanesulfonic acid (HEPES), 1 mM sodium pyruvate, 4500 mg/L glucose, 1500 mg/L sodium bicarbonate, and 10% fetal bovine serum (FBS).
To evaluate in vivo efficacy 5×10^6 NCI-H2122 cells in a 1:1 Matrigel® mix (0.2 mL volume) are implanted by subcutaneous injection in the hind leg of 6-8 weeks of age athymic nude female mice (Harlan Laboratories). Just before implantation animals are irradiated ([…]). Mice are fed ad libitum on normal chow. Treatment is initiated with oral administration (gavage) of Compound A in 1% sodium carboxymethylcellulose (Na-CMC) in 0.25% Tween®-80, or Compound B in 1% hydroxyethyl cellulose (HEC) in phosphate buffer pH 2.0 or their respective vehicle in 0.2 mL volume when tumor size reaches to 150±50 mm^3. Compound A is administered at 5 or 8 mg/kg on a Wednesday, Friday, and Monday schedule (TIW) for 2 weeks and Compound B is administered at 25 or 50 mg/kg daily for 14 days.
Tumor growth and body weight are monitored over time to evaluate efficacy and signs of toxicity. Bidimensional measurements of tumors are performed twice a week and tumor volumes are calculated based on the following formula: (Tumor Volume)=[(L)×(W2)×(Π/6)] where L is mid-axis length and W is mid-axis width. Tumor volume data are transformed to a log scale to equalize variance across time and treatment groups. The log volume data are analyzed with a two-way repeated measures analysis of variance by time and treatment using the MIXED™ procedures in SAS™ software (version 8.2). The correlation model for the repeated measures is spatial power. Test Groups are: • 1: 1% HEC in 25 mM Phosphate Buffer, pH 2, QD×14, PO/1% CMC/0.25% Tween 80/0.05% Antifoam, /W-F-M×2, PO • 3: Compound B, 50 mg/kg, QD×14, PO • 4: Compound A, 5 mg/kg, W-F-M×2, PO • 5: Compound A, 8 mg/kg, W-F-M×2, PO • 7: Compound B, 50 mg/kg, QD×14, PO/Compound A, 5 mg/kg, W-F-M×2, PO • 8: Compound B, 50 mg/kg, QD×14, PO/Compound A, 8 mg/kg, W-F-M×2, PO Group 7 and a Group 9 were combined and labelled group 7, because they received the same treatment regimen contrary to testing procedures. […] Group 2 is not shown as it was Compound B monotreatment at the same treatment regimen as Compound B in Group 6 combination treatment.
Using the repeated measures analysis previously described, a contrast statement is used to test for an interaction effect on study day 27, using the two specific treatments that were combined (Group 7).

[3] = test system: NCI-H441; experiment: Cell growth inhibition by CellTiter-Glo assay, NCI-H441; format: cell-based; conditions: Homo sapiens, Compound B alone, 48 hours
Protocol: (§2) The non-small cell lung cancer (NSCLC) lines NCI-H441 (ATCC® as HTB-174) and NCI-H2122 (ATCC® as CRL-5985) are grown in RPMI-1640 medium supplemented with 2 mM L-glutamine, 10 mM HEPS, 1 mM sodium pyruvate, 4500 mg/L glucose, 1500 mg/L sodium bicarbonate, and 10% fetal bovine serum (FBS) at 37° C. in 5% CO2 with humidity in the atmosphere. The cells are subcultured according to ATCC procedures and treated with increasing concentrations of abemaciclib mesylate (Compound B) either in the presence or absence of 1 μM of Compound A. The growth of the cells is quantified 48 hours later by a CellTiter-Glo assay (Promega). Growth inhibition at each concentration is calculated and IC50 values are determined from the 4-parameter concentration-response curves.

[4] = test system: NCI-H2122; experiment: Cell growth inhibition by CellTiter-Glo assay, NCI-H2122; format: cell-based; conditions: Homo sapiens, Compound B alone, 48 hours
Protocol: as §2, §1

[5] = Compound B 0.05-0.8 μM with or without 1 μM Compound A added 1 day before Compound B, 24 hours after addition
[6] = Compound B 0.05-0.8 μM with or without 1 μM Compound A added simultaneously, 24 hours

For `C[C@H](NC(=O)CCC(F)(F)F)C(=O)N[C@@H]1C(=O)N(CCO)c2ncccc2-c2ccccc21` [Compound A, 4,4,4-trifluoro-N-[(1S)-2-[[(7S)-5-(2-hydroxyethyl)-6-oxo-7H-pyrido[2,3-d][3]benzazepin-7-yl]amino]-1-methyl-2-oxo-ethyl]butanamide], the “cell cycle biomarker expression, time course study” value ([1]; 1 μM Compound A, 24 hours of treatment) was “Marginal reductions of pHH3, Topo2A, pRB and total RB”, the “cell cycle biomarker expression, concentration-response study” value [1, 5] was “no effect on the expression of these biomarkers” and the “cell cycle biomarker expression, concentration-response study” value [1, 6] was “no effect on the expression of these biomarkers”. The “Geometric Mean tumor volume” value ([2]; Group 04: Compound A 5 mg/kg W-F-M×2 PO, study day 6) was 110.18 mm^3, the “Geometric Mean tumor volume” value ([2]; Group 04: Compound A 5 mg/kg W-F-M×2 PO, study day 9) was 129.04 mm^3 and the “Geometric Mean tumor volume” value ([2]; Group 04: Compound A 5 mg/kg W-F-M×2 PO, study day 13) was 189.14 mm^3. The “Geometric Mean tumor volume” value ([2]; Group 04: Compound A 5 mg/kg W-F-M×2 PO, study day 16) was 289.03 mm^3, the “Geometric Mean tumor volume” value ([2]; Group 04: Compound A 5 mg/kg W-F-M×2 PO, study day 20) was 447.05 mm^3 and the “Geometric Mean tumor volume” value ([2]; Group 04: Compound A 5 mg/kg W-F-M×2 PO, study day 23) was 585.69 mm^3. For the same compound, the “Geometric Mean tumor volume” value ([2]; Group 04: Compound A 5 mg/kg W-F-M×2 PO, study day 27) was 761.24 mm^3, the “Geometric Mean tumor volume” value ([2]; Group 05: Compound A 8 mg/kg W-F-M×2 PO, study day 6) was 127.60 mm^3 and the “Geometric Mean tumor volume” value ([2]; Group 05: Compound A 8 mg/kg W-F-M×2 PO, study day 9) was 165.23 mm^3. The “Geometric Mean tumor volume” value ([2]; Group 05: Compound A 8 mg/kg W-F-M×2 PO, study day 13) was 199.00 mm^3, the “Geometric Mean tumor volume” value ([2]; Group 05: Compound A 8 mg/kg W-F-M×2 PO, study day 16) was 301.93 mm^3 and the “Geometric Mean tumor volume” value ([2]; Group 05: Compound A 8 mg/kg W-F-M×2 PO, study day 20) was 492.37 mm^3. The “Geometric Mean tumor volume” value ([2]; Group 05: Compound A 8 mg/kg W-F-M×2 PO, study day 23) was 481.31 mm^3 and the “Geometric Mean tumor volume” value ([2]; Group 05: Compound A 8 mg/kg W-F-M×2 PO, study day 27) was 570.39 mm^3.
In the case of `CCN1CCN(Cc2ccc(Nc3ncc(F)c(-c4cc(F)c5nc(C)n(C(C)C)c5c4)n3)nc2)CC1` [Compound B, N-[5-(4-ethyl-piperazin-1-ylmethyl)-pyridin-2-yl]-[5-fluoro-4-(7-fluoro-3-isopropyl-2-methyl-3H-benzoimidazol-5-yl)-pyrimidin-2-yl]-amine, reference compound], the IC50 [3] is reported as 970 nM, the IC50 [4] is reported as 450 nM and the “cell cycle biomarker expression, concentration-response study” value [1, 5] is reported as “concentration-dependent inhibition of pRB (phospho-ser780-Rb), total RB, Topo IIa and pHH3”. The “cell cycle biomarker expression, concentration-response study” value [1, 6] was “concentration-dependent inhibition of pRB (phospho-ser780-Rb), total RB, Topo IIa and pHH3”, the “Geometric Mean tumor volume” value ([2]; Group 03: Compound B 50 mg/kg QD×14 PO, study day 6) was 136.94 mm^3 and the “Geometric Mean tumor volume” value ([2]; Group 03: Compound B 50 mg/kg QD×14 PO, study day 9) was 188.32 mm^3. For the same compound, the “Geometric Mean tumor volume” value ([2]; Group 03: Compound B 50 mg/kg QD×14 PO, study day 13) was 191.75 mm^3, the “Geometric Mean tumor volume” value ([2]; Group 03: Compound B 50 mg/kg QD×14 PO, study day 16) was 321.32 mm^3 and the “Geometric Mean tumor volume” value ([2]; Group 03: Compound B 50 mg/kg QD×14 PO, study day 20) was 376.59 mm^3. For the same compound, the “Geometric Mean tumor volume” value ([2]; Group 03: Compound B 50 mg/kg QD×14 PO, study day 23) was 489.72 mm^3 and the “Geometric Mean tumor volume” value ([2]; Group 03: Compound B 50 mg/kg QD×14 PO, study day 27) was 491.92 mm^3.
